Experimental data taken from patent US10968222B2, “2-azabicyclo hexane JAK inhibitor compound” (THERAVANCE BIOPHARMA R&D IP, LLC, priority 2018, dated 2021).

How the values were obtained:
[1] = biological target: T1, ALK (Homo sapiens, UniProt Q9UM73); assay: Kinome screen, ALK; type: binding; settings: screened at 1 μM
T1 construct: made in house; host or cells: E. coli BL21-derived host (T7 phage) or HEK-293 cells
Procedure: (§1) Compounds 1 and C-1 were screened against other kinases to evaluate their selectivity profile.
(§2) Kinase-tagged T7 phage strains were grown in parallel in 24-well blocks in an E. coli host derived from the BL21 strain. E. coli were grown to log-phase and infected with T7 phage from a frozen stock (multiplicity of infection=0.4) and incubated with shaking at 32° C. until lysis (90-150 minutes). The lysates were centrifuged (6,000×g) and filtered (0.2 μm) to remove cell debris. The remaining kinases were produced in HEK-293 cells and subsequently tagged with DNA for qPCR detection.
(§3) Streptavidin-coated magnetic beads were treated with biotinylated small molecule ligands for 30 minutes at room temperature to generate affinity resins for kinase assays. The liganded beads were blocked with excess biotin and washed with blocking buffer (SeaBlock (Pierce), 1% BSA, 0.05% Tween 20, 1 mM DTT) to remove unbound ligand and to reduce non-specific phage binding. Binding reactions were assembled by combining kinases, liganded affinity beads, and test compounds in 1× binding buffer (20% SeaBlock, 0.17×PBS, 0.05% Tween 20, 6 mM DTT). Test compounds were prepared as 40× stocks in 100% DMSO and directly diluted into the assay. All reactions were performed in polypropylene 384-well plates in a final volume of 0.04 ml. […] The kinase concentration in the eluates was measured by qPCR. […]

[2] = biological target: T2, AURKA (Homo sapiens, UniProt O14965); assay: Kinome screen, AURKA; type: binding; settings: screened at 1 μM
T2 construct: made in house; host or cells: E. coli BL21-derived host (T7 phage) or HEK-293 cells
T2 sequence (O14965 whole entry): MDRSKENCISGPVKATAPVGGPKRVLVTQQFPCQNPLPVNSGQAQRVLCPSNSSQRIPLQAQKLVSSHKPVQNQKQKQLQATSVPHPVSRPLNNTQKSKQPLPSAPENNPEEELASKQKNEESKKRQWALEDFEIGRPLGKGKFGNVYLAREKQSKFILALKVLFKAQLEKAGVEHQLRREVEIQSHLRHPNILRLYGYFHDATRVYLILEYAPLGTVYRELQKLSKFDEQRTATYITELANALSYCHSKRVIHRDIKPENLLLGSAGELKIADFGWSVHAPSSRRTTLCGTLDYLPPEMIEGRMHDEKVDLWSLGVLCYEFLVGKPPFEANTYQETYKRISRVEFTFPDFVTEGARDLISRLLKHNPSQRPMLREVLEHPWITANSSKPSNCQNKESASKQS
Procedure: as §1, §2, §3

[3] = biological target: T3, CDK2 (Homo sapiens, UniProt P24941); assay: Kinome screen, CDK2; type: binding; settings: screened at 1 μM
T3 construct: made in house; host or cells: E. coli BL21-derived host (T7 phage) or HEK-293 cells
Procedure: as §1, §2, §3

[4] = biological target: T4, CDK7 (Homo sapiens, UniProt P50613); assay: Kinome screen, CDK7; type: binding; settings: screened at 1 μM
T4 construct: made in house; host or cells: E. coli BL21-derived host (T7 phage) or HEK-293 cells
T4 sequence (P50613 whole entry): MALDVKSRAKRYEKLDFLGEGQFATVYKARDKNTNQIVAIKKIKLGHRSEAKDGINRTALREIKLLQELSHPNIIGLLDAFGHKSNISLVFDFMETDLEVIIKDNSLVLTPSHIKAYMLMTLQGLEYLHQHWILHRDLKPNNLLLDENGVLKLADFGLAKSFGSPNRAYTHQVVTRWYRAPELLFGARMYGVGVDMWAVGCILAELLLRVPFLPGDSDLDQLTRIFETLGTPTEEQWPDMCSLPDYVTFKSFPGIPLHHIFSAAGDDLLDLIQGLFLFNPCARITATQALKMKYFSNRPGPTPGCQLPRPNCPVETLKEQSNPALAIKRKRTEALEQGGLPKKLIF
Procedure: as §1, §2, §3

[5] = biological target: T5, CDK9 (Homo sapiens, UniProt P50750); assay: Kinome screen, CDK9; type: binding; settings: screened at 1 μM
T5 construct: made in house; host or cells: E. coli BL21-derived host (T7 phage) or HEK-293 cells
T5 sequence (P50750 whole entry): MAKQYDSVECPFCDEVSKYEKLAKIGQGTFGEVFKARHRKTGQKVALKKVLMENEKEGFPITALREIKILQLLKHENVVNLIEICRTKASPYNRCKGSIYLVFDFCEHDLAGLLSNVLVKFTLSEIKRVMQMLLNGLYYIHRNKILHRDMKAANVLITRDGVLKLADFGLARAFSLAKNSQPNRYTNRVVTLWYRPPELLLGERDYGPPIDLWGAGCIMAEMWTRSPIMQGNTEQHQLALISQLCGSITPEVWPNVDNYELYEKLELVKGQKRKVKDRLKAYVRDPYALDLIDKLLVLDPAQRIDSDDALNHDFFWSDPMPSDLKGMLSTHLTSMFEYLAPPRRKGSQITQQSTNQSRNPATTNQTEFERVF
Procedure: as §1, §2, §3

[6] = biological target: T6, CSF1R (Homo sapiens, UniProt P07333); assay: Kinome screen, CSF1R; type: binding; settings: screened at 1 μM
T6 construct: made in house; host or cells: E. coli BL21-derived host (T7 phage) or HEK-293 cells
T6 sequence (P07333 20-972): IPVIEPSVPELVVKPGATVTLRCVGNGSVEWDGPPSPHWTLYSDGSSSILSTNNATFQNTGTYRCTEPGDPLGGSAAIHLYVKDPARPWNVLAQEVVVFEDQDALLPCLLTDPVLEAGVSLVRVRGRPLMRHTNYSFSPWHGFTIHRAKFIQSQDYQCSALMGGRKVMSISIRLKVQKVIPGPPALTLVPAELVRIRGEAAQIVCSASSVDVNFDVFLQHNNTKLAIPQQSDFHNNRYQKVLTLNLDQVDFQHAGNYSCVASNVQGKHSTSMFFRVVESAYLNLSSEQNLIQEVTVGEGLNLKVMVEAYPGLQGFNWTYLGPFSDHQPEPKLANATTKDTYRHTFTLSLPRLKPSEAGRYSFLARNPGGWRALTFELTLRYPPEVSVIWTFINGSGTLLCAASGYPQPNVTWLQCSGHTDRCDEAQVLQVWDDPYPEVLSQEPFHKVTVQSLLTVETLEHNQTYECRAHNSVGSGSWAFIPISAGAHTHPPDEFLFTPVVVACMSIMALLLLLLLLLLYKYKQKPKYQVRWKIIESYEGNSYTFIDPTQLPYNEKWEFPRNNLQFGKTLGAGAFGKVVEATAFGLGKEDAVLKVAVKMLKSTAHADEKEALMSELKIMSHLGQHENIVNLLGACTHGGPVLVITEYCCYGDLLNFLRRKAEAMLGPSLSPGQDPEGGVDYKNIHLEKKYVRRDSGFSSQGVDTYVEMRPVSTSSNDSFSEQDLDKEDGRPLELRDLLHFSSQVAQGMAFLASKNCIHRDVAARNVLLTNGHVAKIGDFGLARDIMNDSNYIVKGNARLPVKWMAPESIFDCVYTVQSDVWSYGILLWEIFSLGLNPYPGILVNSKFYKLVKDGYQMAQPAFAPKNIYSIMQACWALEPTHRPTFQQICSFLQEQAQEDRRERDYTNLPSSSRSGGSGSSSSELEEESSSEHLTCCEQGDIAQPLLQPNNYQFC
Procedure: as §1, §2, §3

[7] = biological target: T7, EPHB6 (Homo sapiens, UniProt O15197); assay: Kinome screen, EPHB6; type: binding; settings: screened at 1 μM
T7 construct: made in house; host or cells: E. coli BL21-derived host (T7 phage) or HEK-293 cells
T7 sequence (O15197 32-1021): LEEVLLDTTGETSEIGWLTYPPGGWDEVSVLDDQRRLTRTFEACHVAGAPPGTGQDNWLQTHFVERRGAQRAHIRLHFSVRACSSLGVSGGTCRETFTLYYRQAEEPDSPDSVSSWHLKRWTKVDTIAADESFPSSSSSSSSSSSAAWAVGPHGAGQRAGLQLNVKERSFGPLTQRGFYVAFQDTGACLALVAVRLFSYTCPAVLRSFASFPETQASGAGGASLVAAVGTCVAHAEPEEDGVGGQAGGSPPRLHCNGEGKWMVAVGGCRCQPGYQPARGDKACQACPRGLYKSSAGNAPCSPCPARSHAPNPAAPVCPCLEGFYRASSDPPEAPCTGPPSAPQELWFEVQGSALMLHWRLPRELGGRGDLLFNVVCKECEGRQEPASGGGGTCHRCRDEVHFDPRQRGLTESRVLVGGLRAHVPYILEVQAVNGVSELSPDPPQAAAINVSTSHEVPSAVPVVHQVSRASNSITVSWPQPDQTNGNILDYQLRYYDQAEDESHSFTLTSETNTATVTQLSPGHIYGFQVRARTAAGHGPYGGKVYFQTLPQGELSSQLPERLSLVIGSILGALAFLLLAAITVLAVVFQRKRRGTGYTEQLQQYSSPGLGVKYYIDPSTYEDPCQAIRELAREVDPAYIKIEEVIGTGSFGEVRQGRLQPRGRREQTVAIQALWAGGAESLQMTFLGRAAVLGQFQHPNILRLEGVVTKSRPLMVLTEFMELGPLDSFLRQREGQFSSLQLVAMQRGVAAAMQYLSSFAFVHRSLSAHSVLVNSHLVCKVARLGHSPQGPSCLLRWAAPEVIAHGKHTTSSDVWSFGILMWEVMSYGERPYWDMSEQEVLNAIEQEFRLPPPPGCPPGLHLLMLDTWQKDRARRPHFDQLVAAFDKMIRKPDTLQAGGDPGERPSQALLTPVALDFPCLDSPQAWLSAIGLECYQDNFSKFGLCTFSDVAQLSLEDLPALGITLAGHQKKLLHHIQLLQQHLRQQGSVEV
Procedure: as §1, §2, §3

[8] = biological target: T8, GSK3B (Homo sapiens, UniProt P49841); assay: Kinome screen, GSK3B; type: binding; settings: screened at 1 μM
T8 construct: made in house; host or cells: E. coli BL21-derived host (T7 phage) or HEK-293 cells
T8 sequence (P49841 whole entry): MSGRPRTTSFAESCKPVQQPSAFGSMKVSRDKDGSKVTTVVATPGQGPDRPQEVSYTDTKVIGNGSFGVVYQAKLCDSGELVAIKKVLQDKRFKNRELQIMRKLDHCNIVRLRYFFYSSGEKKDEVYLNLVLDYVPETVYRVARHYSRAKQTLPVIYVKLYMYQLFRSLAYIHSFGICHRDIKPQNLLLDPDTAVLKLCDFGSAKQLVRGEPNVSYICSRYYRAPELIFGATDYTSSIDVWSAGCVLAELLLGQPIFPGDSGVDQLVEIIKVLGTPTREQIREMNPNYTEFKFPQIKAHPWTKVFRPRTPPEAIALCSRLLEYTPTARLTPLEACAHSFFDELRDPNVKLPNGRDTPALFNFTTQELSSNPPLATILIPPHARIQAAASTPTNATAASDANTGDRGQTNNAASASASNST
Procedure: as §1, §2, §3

[9] = biological target: T9, KIT (Homo sapiens, UniProt P10721); assay: Kinome screen, KIT; type: binding; settings: screened at 1 μM
T9 construct: made in house; host or cells: E. coli BL21-derived host (T7 phage) or HEK-293 cells
Procedure: as §1, §2, §3

[10] = biological target: T10, PAK4 (Homo sapiens, UniProt O96013); assay: Kinome screen, PAK4; type: binding; settings: screened at 1 μM
T10 construct: made in house; host or cells: E. coli BL21-derived host (T7 phage) or HEK-293 cells
T10 sequence (O96013 whole entry): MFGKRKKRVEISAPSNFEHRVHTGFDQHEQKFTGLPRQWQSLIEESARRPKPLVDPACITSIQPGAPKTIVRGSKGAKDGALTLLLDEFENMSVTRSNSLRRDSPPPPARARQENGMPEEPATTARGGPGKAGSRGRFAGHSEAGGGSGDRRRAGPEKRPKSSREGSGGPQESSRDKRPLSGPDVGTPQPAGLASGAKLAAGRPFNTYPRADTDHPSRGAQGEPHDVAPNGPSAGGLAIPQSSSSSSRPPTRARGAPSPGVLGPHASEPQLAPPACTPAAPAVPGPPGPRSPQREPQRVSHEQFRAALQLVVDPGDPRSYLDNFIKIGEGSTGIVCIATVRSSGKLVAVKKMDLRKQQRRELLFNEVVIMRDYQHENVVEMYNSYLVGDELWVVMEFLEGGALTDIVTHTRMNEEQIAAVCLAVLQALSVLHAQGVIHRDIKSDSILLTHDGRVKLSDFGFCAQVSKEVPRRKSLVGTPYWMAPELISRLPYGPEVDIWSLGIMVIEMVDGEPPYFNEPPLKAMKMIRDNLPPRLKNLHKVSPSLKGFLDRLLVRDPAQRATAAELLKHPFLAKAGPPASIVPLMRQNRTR
Procedure: as §1, §2, §3

[11] = biological target: T11, PKAC-ALPHA (Homo sapiens, UniProt P17612); assay: Kinome screen, PKAC-ALPHA; type: binding; settings: screened at 1 μM
T11 construct: made in house; host or cells: E. coli BL21-derived host (T7 phage) or HEK-293 cells
Procedure: as §1, §2, §3

[12] = biological target: T12, PLK4 (Homo sapiens, UniProt O00444); assay: Kinome screen, PLK4; type: binding; settings: screened at 1 μM
T12 construct: made in house; host or cells: E. coli BL21-derived host (T7 phage) or HEK-293 cells
Procedure: as §1, §2, §3

[13] = biological target: T13, SLK (Homo sapiens, UniProt Q9H2G2); assay: Kinome screen, SLK; type: binding; settings: screened at 1 μM
T13 construct: made in house; host or cells: E. coli BL21-derived host (T7 phage) or HEK-293 cells
Procedure: as §1, §2, §3

[14] = biological target: T14, SRC (Homo sapiens, UniProt P12931); assay: Kinome screen, SRC; type: binding; settings: screened at 1 μM
T14 construct: made in house; host or cells: E. coli BL21-derived host (T7 phage) or HEK-293 cells
T14 sequence (P12931 whole entry): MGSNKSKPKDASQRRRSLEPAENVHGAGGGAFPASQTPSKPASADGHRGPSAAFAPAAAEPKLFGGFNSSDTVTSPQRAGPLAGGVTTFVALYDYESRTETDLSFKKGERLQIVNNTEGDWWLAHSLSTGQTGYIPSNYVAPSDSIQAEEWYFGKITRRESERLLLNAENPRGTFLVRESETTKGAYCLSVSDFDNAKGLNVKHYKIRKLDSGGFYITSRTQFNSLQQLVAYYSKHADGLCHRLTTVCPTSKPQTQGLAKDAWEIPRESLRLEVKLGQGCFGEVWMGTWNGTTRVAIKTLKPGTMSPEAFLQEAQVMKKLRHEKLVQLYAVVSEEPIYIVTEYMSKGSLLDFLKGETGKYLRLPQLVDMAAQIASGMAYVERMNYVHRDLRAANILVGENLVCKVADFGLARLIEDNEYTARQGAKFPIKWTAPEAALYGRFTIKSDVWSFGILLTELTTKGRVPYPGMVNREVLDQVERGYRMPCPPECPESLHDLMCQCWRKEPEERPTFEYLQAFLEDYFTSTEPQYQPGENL
Procedure: as §1, §2, §3

[15] = biological target: T15, SYK (Homo sapiens, UniProt P43405); assay: Kinome screen, SYK; type: binding; settings: screened at 1 μM
T15 construct: made in house; host or cells: E. coli BL21-derived host (T7 phage) or HEK-293 cells
Procedure: as §1, §2, §3

[16] = biological target: T16, VEGFR2 (Homo sapiens, UniProt P35968); assay: Kinome screen, VEGFR2; type: binding; settings: screened at 1 μM
T16 construct: made in house; host or cells: E. coli BL21-derived host (T7 phage) or HEK-293 cells
Procedure: as §1, §2, §3

[17] = biological target: T17, CSNK1D (Homo sapiens, UniProt P48730); assay: Kinome screen, CSNK1D; type: binding; settings: screened at 1 μM
T17 construct: made in house; host or cells: E. coli BL21-derived host (T7 phage) or HEK-293 cells
T17 sequence (P48730 whole entry): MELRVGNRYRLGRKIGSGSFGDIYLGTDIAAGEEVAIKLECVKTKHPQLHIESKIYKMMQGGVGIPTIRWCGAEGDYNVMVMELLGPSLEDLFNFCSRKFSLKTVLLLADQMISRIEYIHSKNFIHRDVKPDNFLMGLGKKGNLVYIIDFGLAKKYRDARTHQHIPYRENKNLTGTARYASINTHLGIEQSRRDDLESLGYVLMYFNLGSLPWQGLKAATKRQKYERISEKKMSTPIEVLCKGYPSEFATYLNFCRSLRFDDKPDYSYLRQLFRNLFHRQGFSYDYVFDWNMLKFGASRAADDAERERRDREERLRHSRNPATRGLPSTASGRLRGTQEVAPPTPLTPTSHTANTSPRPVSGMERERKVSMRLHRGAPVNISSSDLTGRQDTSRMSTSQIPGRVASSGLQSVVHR
Procedure: as §1, §2, §3

[18] = tested on: BEAS-2B human lung epithelial cells; assay: CellTiter-Glo cell viability/cytotoxicity assay; type: cell-based; settings: BEAS-2B cells; 48 h; 15% inhibition threshold
Procedure: A CellTiter-Glo luminescent cell viability/cytotoxicity assay was carried out in BEAS-2B human lung epithelial cells (ATCC) under the normal growth condition.
Cells were grown at 37° C. in a 5% CO2 humidified incubator in 50% DMEM/50% F-12 medium (Life Technologies) supplemented with 10% FBS (Hyclone), 100 U/mL penicillin, 100 μg/mL streptomycin (Life Technologies), and 2 mM GlutaMAX (Life Technologies). On day 1 of the assay, cells were seeded at a 500 cells/well density in white 384-well tissue culture plates (Corning) with 25 μL medium, and were allowed to adhere overnight in the incubator. On day 2 of the assay, 5 μL of medium containing dose-responses of test compounds was added, and incubated at 37° C. for 48 h. 30 μL of CellTiter-Glo detection solution (Promega) was subsequently added, mixed on an orbital shaker for 5 min, and incubated for additional 10 min before being read on the EnVision reader. Luminescence signals were recorded and percent DMSO control values were calculated.
For dose-response analysis, percent DMSO control data were plotted vs. compound concentrations to derive dose-response curves by line connecting each data point. The concentration at which each curve crosses the 15% inhibition threshold is defined as CC15.

inhibition at 1 µM [1]: 87%
inhibition at 1 µM [2]: 54%
inhibition at 1 µM [3]: 50%
inhibition at 1 µM [4]: 98.8%
inhibition at 1 µM [5]: 89%
inhibition at 1 µM [6]: 100%
inhibition at 1 µM [7]: 96.5%
inhibition at 1 µM [8]: 52%
inhibition at 1 µM [9]: 98.5%
inhibition at 1 µM [10]: 89%
inhibition at 1 µM [11]: 55%
inhibition at 1 µM [12]: 40%
inhibition at 1 µM [13]: 99.9%
inhibition at 1 µM [14]: 98.9%
inhibition at 1 µM [15]: 82%
inhibition at 1 µM [16]: 59%
inhibition at 1 µM [17]: 66%
SMILES: CCc1cc(O)c(F)cc1-c1ccc2c(-c3nc4c([nH]3)CCN(C(=O)[C@]35C[C@H]3CCN5)C4)n[nH]c2c1 [Compound C-1, ((1S,5R)-2-azabicyclo[3.1.0]hexan-1-yl)(2-(6-(2-ethyl-5-fluoro-4-hydroxyphenyl)-1H-indazol-3-yl)-1,4,6,7-tetrahydro-5H-imidazo[4,5-c]pyridin-5-yl)methanone, reference compound]
CC15 [18]: 1.58 µM
pCC15 [18]: 5.8
